Test results from US6858638B2, “Substituted indazoles, compositions containing them, method of production and use” (Aventis Pharma S.A., priority 2002, dated 2005).

Columns and labels:
human FAK = molecular target: T1, human FAK (Homo sapiens, UniProt Q05397); experiment: FAK autophosphorylation inhibition, time resolved fluorescence (HTRF) assay; type: biochemical; conditions: 10 μM (values without asterisk); for inhibition at 10 µM: read-out: FAK % inhib at 10 μM
T1 construct: The complete cDNA of human FAK; made in house; host or cells: baculovirus expression system (vector pFastBac HTc)
T1 sequence (Q05397 whole entry): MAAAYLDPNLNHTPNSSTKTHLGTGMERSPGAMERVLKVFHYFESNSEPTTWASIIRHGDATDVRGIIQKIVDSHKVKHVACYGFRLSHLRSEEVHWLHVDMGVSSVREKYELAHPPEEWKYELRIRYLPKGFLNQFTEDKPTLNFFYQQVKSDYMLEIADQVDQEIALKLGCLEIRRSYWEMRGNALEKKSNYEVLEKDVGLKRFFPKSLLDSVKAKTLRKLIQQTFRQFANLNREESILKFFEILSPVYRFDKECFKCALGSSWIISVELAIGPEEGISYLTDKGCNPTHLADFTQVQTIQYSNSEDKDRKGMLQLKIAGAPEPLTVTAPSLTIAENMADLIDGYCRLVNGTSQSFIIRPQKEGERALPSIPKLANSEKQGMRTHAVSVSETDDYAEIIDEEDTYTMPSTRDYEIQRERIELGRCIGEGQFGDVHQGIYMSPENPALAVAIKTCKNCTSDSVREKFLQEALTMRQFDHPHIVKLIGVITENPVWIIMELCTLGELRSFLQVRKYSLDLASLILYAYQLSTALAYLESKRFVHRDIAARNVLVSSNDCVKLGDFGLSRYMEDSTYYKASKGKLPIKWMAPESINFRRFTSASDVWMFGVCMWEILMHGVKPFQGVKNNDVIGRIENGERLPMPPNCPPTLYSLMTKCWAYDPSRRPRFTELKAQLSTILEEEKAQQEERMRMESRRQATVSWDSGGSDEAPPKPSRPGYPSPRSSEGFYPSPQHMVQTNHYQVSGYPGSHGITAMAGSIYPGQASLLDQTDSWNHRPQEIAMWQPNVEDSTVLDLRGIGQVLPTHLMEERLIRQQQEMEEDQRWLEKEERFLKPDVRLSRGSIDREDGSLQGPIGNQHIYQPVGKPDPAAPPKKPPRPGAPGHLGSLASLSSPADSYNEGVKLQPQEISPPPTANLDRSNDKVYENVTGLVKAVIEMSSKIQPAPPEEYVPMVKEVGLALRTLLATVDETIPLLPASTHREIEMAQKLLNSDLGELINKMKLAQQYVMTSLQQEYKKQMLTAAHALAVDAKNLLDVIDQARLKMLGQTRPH
Summary of the method: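 Autophosphorylation was detected by europium-cryptate anti-pTyr and XL665 anti-His energy transfer, percent inhibition from the 665/620 ratio relative to no-compound wells. Enzyme: His-FAK full length, 6.6 µg/ml, incubated 1 h at 37 °C, pH 7.2, 15 µM ATP.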

c-Src protein = experiment: Src kinase phosphorylation of biotinylated cdc2 substrate, fluorescence (DELFIA); type: biochemical, human
Experimental: The inhibition of the Src kinase is evaluated by measuring the phosphorylation of the biotinylated cdc2 substrate (Pierce) detected by fluorescence (DELFIA) using an antiphosphotyrosine antibody labeled with Europium, in 96-well Wallac plates. The c-Src protein used is a recombinant human protein produced in Baculovirus, comprising the SH3 and SH2 and the catalytic domains. The enzyme, the substrate and the various concentrations of test compounds are placed in the well in a 50 mM Tris buffer containing 10 mM MgCl2. The reaction is initiated by adding 10 μM of ATP. After incubation for 60 minutes at 30° C., the reaction is stopped by adding 75 mM EDTA. 50 μl are taken from each well and transferred into a plate coated with streptavidin. After incubation for 30 minutes at 25° C., the wells are washed with a washing buffer (Wallac) and then the antiphosphotyrosine antibody (PY20-Europium [Perkin Elmer]) is added in a volume of 75 μl. The plate is incubated for 30 minutes at 25° C. and then an “Enhancer” solution (Wallac) is added before reading the fluorescence using a fluorimeter (Perkin Elmer). The background noise is evaluated in triplicate in wells containing the substrate and the antibody in the absence of enzyme. The activity of the enzyme is measured (in triplicate) in the wells containing all the reagents in the absence of compound. The inhibition of the Src activity is expressed as percentage inhibition of the activity of the control determined in the absence of compound. The compound PP2 (Calbiochem) is included at various concentrations in each experiment as an inhibition control.

melting point	inhibition at 10 µM (human FAK)	SRC % inhib at 10 μM (c-Src protein)	FAK % inhib at 10 μM (human FAK; 10 µM)	SMILES
244 °C	97%			COc1ccc(-c2n[nH]c3ccc(NS(=O)(=O)c4ccccc4S(C)(=O)=O)cc23)cc1 [Example 32, N-[3-(4-Methoxyphenyl)-1H-indazol-5-yl]-2-methylsulfonylbenzenesulfonamide]
209 °C	94%			CS(=O)(=O)c1ccccc1S(=O)(=O)Nc1ccc2[nH]nc(-c3ccc(F)cc3)c2c1 [Example 33, N-[3-(4-Fluorophenyl)-1H-indazol-5-yl]-2-methylsulfonylbenzenesulfonamide]
249 °C	93%			CS(=O)(=O)c1ccccc1S(=O)(=O)Nc1ccc2[nH]nc(-c3ccoc3)c2c1 [Example 52, N-(3-Furan-3-yl-1H-indazol-5-yl)-2-methylsulfonylbenzenesulfonamide]
248 °C	96%			CS(=O)(=O)c1ccccc1S(=O)(=O)Nc1ccc2[nH]nc(-c3ccco3)c2c1 [Example 53, N-(3-Furan-2-yl-1H-indazol-5-yl)-2-methylsulfonylbenzenesulfonamide]
265 °C	96%			CS(=O)(=O)c1ccccc1S(=O)(=O)Nc1ccc2[nH]nc(-c3ccncc3)c2c1 [Example 54, 2-Methylsulfonyl-N-(3-pyridin-4-yl-1H-indazol-5-yl)benzenesulfonamide]
202 °C	98%			COC(=O)c1cccc(-c2n[nH]c3ccc(NS(=O)(=O)c4ccccc4S(C)(=O)=O)cc23)c1 [Example 55, Methyl 3-[5-(2-methylsulfonylbenzenesulfonamino)-1H-indazol-3-yl]benzoate]
	99%	99%		CS(=O)(=O)c1ccccc1S(=O)(=O)Nc1ccc2[nH]nc(-c3cc4ccccc4[nH]3)c2c1 [Example 61, N-[3-(1H-Indol-2-yl)-1H-indazol-5-yl]-2-methylsulfonylbenzenesulfonamide]
	94%	46%		CN(C)c1ccc(-c2n[nH]c3ccc(NS(=O)(=O)c4ccccc4S(C)(=O)=O)cc23)cc1 [Example 63, N-[3-(4-Dimethylaminophenyl)-1H-indazol-5-yl]-2-methylsulfonylbenzenesulfonamide]
154 °C	99%			CS(=O)(=O)c1ccccc1S(=O)(=O)Nc1ccc2[nH]nc(-c3ccc(N)cc3)c2c1 [Example 70, N-[3-(4-Aminophenyl)-1H-indazol-5-yl]-2-methylsulfonylbenzenesulfonamide]
240 °C	97%			CS(=O)(=O)c1ccccc1S(=O)(=O)Nc1ccc2[nH]nc(-c3cccc(C#N)c3)c2c1 [Example 71, N-[3-(3-Cyanophenyl)-1H-indazol-5-yl]-2-methylsulfonylbenzenesulfonamide]
195 °C	21%			CS(=O)(=O)c1ccccc1S(=O)(=O)Nc1ccc2[nH]nc(Sc3ccccc3)c2c1 [Example 88, 2-Methylsulfonyl-N-(3-phenylsulfanyl-1H-indazol-5-yl)-benzenesulfonamide]
224 °C	94%			CS(=O)(=O)c1ccc(F)cc1S(=O)(=O)Nc1ccc2[nH]nc(-c3ccccc3)c2c1 [Example 93, 5-Fluoro-2-methylsulfonyl-N-(3-phenyl-1H-indazol-5-yl)-benzenesulfonamide]
249 °C	36%			Nc1ccc(S(=O)(=O)Nc2ccc3[nH]nc(-c4ccccc4)c3c2)cc1 [Example 94, 4-Amino-N-(3-phenyl-1H-indazol-5-yl)benzenesulfonamide]
167 °C			0%	CC(=O)Nc1ccc(S(=O)(=O)Nc2ccc3[nH]nc(-c4ccccc4)c3c2)cc1 [Example 95, N-[4-(3-Phenyl-1H-indazol-5-ylsulfamoyl)phenyl]acetamide]
230 °C	94%			O=S(=O)(Nc1ccc2[nH]nc(-c3ccccc3)c2c1)C1CCNCC1 [Example 100, N-(3-Phenyl-1H-indazol-5-yl)-piperidine-4-sulfonamide]
	61%	42%		O=S(=O)(Nc1ccc2[nH]nc(-c3ccccc3)c2c1)c1ccccc1C(F)(F)F [Example 109, N-(3-Phenyl-1H-indazol-5-yl)-2-trifluoromethylbenzene-sulfonamide]
	66%	45%		O=S(=O)(Nc1ccc2[nH]nc(-c3ccccc3)c2c1)c1cccs1 [Example 110, N-(3-Phenyl-1H-indazol-5-yl)-thiophene-2-sulfonamide]
	75%	47%		O=S(=O)(Nc1ccc2[nH]nc(-c3ccccc3)c2c1)c1ccccc1 [Example 112, N-(3-Phenyl-1H-indazol-5-yl)benzenesulfonamide]

The next lines start with the compound.

SMILES	melting point	inhibition at 10 µM (human FAK)	SRC % inhib at 10 μM (c-Src protein)	FAK % inhib at 10 μM (human FAK; 10 µM)
Nc1n[nH]c2ccc(NS(=O)(=O)c3cccc(F)c3)cc12 [Example 26, N-(3-Amino-1H-indazol-5-yl)-3-fluorobenzenesulfonamide]	216 °C	96%		
CS(=O)(=O)c1ccccc1S(=O)(=O)Nc1ccc2[nH]nc(NCc3ccccc3)c2c1 [Example 36, N-(3-Benzylamino-1H-indazol-5-yl)-2-methylsulfonylbenzenesulfonamide]	226 °C	92%		
CNc1n[nH]c2ccc(NS(=O)(=O)c3ccccc3S(C)(=O)=O)cc12 [Example 37, N-(3-Methylamino-1H-indazol-5-yl)-2-methylsulfonylbenzenesulfonamide]	220 °C	67%		
CS(=O)(=O)c1ccccc1S(=O)(=O)Nc1ccc2[nH]nc(N)c2c1 [Example 39, N-(3-Amino-1H-indazol-5-yl)-2-methylsulfonylbenzenesulfonamide]	246 °C	96%		
Nc1n[nH]c2ccc(NS(=O)(=O)c3c(F)cccc3F)cc12 [Example 40, N-(3-Amino-1H-indazol-5-yl)-2,6-difluorobenzenesulfonamide]	241 °C	55%		
Nc1n[nH]c2ccc(NS(=O)(=O)c3c(Cl)cccc3Cl)cc12 [Example 41, N-(3-Amino-1H-indazol-5-yl)-2,6-dichlorobenzenesulfonamide]	250 °C	71%		
Nc1n[nH]c2ccc(NS(=O)(=O)c3cc(F)cc(F)c3)cc12 [Example 42, N-(3-Amino-1H-indazol-5-yl)-3,5-difluorobenzenesulfonamide]	232 °C	100%		
CS(=O)(=O)c1ccccc1S(=O)(=O)Nc1ccc2[nH]nc(/C=C/c3ccc(F)cc3)c2c1 [Example 74, N-{3-[(E)-2-(4-Fluorophenyl)vinyl]-1H-indazol-5-yl}-2-methylsulfonylbenzenesulfonamide]	248 °C	99%		
CS(=O)(=O)c1ccccc1S(=O)(=O)Nc1ccc2[nH]nc(/C=C/c3ccc(Cl)cc3)c2c1 [Example 76, N-{3-[(E)-2-(4-Chlorophenyl)vinyl]-1H-indazol-5-yl}-2-methylsulfonylbenzenesulfonamide]	247 °C	96%		
COC(=O)/C=C/c1n[nH]c2ccc(NS(=O)(=O)c3ccccc3S(C)(=O)=O)cc12 [Example 79, Methyl (E)-3-[5(2-methylsulfonylbenzenesulfonylamino)-1H-indazol-3-yl]-acrylate]	253 °C	98%		
CS(=O)(=O)c1ccccc1S(=O)(=O)Nc1ccc2[nH]nc(-c3nc4ccccc4[nH]3)c2c1 [Example 81, N-[3-(1H-Benzimidazol-2-yl)-1H-indazol-5-yl]-2-methylsulfonylbenzenesulfonamide]		98%	100%	
O=S(=O)(Nc1ccc2[nH]nc(-c3cc4ccccc4[nH]3)c2c1)c1ccccc1OC(F)(F)F [Example 84, N-[3-(1H-Indol-2-yl)-1H-indazol-5-yl]-2-trifluoromethoxybenzenesulfonamide]	172 to 174 °C	90%		
CS(=O)(=O)c1ccccc1S(=O)(=O)Nc1ccc2[nH]nc(C#Cc3ccccc3)c2c1 [Example 89, 2-Methylsulfonyl-N-(3-phenylethynyl-1H-indazol-5-yl)-benzenesulfonamide]	198 °C	92%		
Cc1cc2[nH]nc(-c3ccccc3)c2cc1NS(=O)(=O)c1ccccc1S(C)(=O)=O [Example 92, 2-Methylsulfonyl-N-(6-methyl-3-phenyl-1H-indazol-5-yl)-benzenesulfonamide]	239 °C	27%		
